Data reported in ChEMBL document CHEMBL1201862, “PubChem BioAssay data set” (2004).
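Compound exposure: 48 hours, 5 concentrations, 96-well plates. GI50 = concentration required for 50% inhibition of growth.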 Calls of active or inactive are those of the source. No stated cut-off is given here; in the data, active = GI50 up to about 1.1 µM and inactive = higher.

Experiments:
Assay in all cases: growth of human tumour cells (NCI), 48 h
[1] = test system: NCI-H522
[2] = test system: PC-3
[3] = test system: Hs-578T
[4] = test system: HOP-92
[5] = test system: OVCAR-8
[6] = test system: EKVX
[7] = test system: OVCAR-3
[8] = test system: SR
[9] = test system: K562
[10] = test system: KM12
[11] = test system: UACC-257
[12] = test system: MDA-N
[13] = test system: NCI-H23
[14] = test system: A498
[15] = test system: NCI/ADR-RES
[16] = test system: HOP-62
[17] = test system: SK-MEL-2
[18] = test system: MOLT-4
[19] = test system: HL-60

Measured: GI50

Cn1c(=O)c2nc(CCCCc3nc4c(=O)n(C)c(=S)n(C)c4[nH]3)[nH]c2n(C)c1=S
inactive: [1] > 100 µM | [2] > 100 µM | [3] > 100 µM | [4] 45.7 µM | [5] > 100 µM | [6] 23.4 µM | [7] > 100 µM | [8] > 100 µM | [9] > 100 µM | [10] > 100 µM | [11] > 100 µM | [12] > 100 µM | [13] > 100 µM | [14] > 100 µM | [15] > 100 µM | [16] 38.9 µM | [17] > 100 µM

COC(=O)CN1Cc2cc(C)cc(c2O)CN(CC(=O)OC)Cc2cc(C)cc(c2O)CN(CC(=O)OC)Cc2cc(C)cc(c2O)C1
inactive: [1] > 100 µM | [2] > 32.9 µM | [3] > 100 µM | [4] > 81.8 µM | [5] > 100 µM | [6] > 100 µM | [7] > 58.2 µM | [18] > 100 µM | [19] 15.4 µM | [9] > 100 µM | [10] > 56.2 µM | [11] > 100 µM | [12] > 87.9 µM | [13] > 100 µM | [14] > 51.8 µM | [15] > 100 µM | [16] > 40.3 µM | [17] > 39.8 µM

O=c1[nH]c(=O)n(C2OC(CO)C(O)C2O)c2ncc(-c3ccc(-c4ccccc4)cc3)nc12 (centres undefined)
inactive: [1] > 20 µM | [2] > 20 µM | [3] > 20 µM | [4] > 20 µM | [5] > 20 µM | [6] > 20 µM | [18] > 20 µM | [8] > 20 µM | [9] > 20 µM | [10] > 20 µM | [11] > 20 µM | [12] > 20 µM | [13] > 20 µM | [14] > 20 µM | [15] > 20 µM | [16] > 20 µM | [17] > 20 µM

N=C(N)C(/N=N\c1ccccc1)C(=N)N (centres undefined)
inactive: [1] 36 µM | [2] 31.8 µM | [3] 48.9 µM | [4] 20.3 µM | [5] 95.5 µM | [6] 38.8 µM | [7] 38.5 µM | [18] 30.5 µM | [19] 24.7 µM | [9] 23.7 µM | [10] 29.4 µM | [11] 33.7 µM | [12] 19.5 µM | [13] 50.4 µM | [14] 54.5 µM | [15] 60.4 µM | [16] 61.7 µM | [17] 23.4 µM

C=CCN(CC=C)Cn1c(=S)sc2ccccc21
inactive: [1] 18.7 µM | [2] > 100 µM | [3] > 100 µM | [4] 36.4 µM | [5] > 100 µM | [6] > 100 µM | [7] > 100 µM | [18] 94.8 µM | [19] 16.5 µM | [10] > 100 µM | [11] > 100 µM | [12] > 100 µM | [13] > 100 µM | [15] > 100 µM | [16] > 100 µM | [17] > 100 µM

O=c1[nH]n(Cc2ccccc2Cl)c2ccc([N+](=O)[O-])cc12
inactive: [1] 36.1 µM | [3] 48.9 µM | [4] 18.5 µM | [5] 42.3 µM | [6] 58.7 µM | [7] 35.9 µM | [18] 35.8 µM | [19] 31.6 µM | [8] 29.2 µM | [9] 29 µM | [10] 63.5 µM | [11] > 100 µM | [12] 47 µM | [13] 49.8 µM | [14] 22.3 µM | [15] 28.1 µM | [16] 75.9 µM | [17] 34.7 µM

COc1ccc2c(c1)O[C@@H]1C(O)Oc3cc(OC)c(OC)cc3[C@]1(O)C2=O (some centres undefined)
inactive: [1] 5.33 µM | [2] 59.6 µM | [3] 20.2 µM | [5] 94.6 µM | [6] 45.9 µM | [7] > 100 µM | [18] 36.6 µM | [19] 32.1 µM | [9] 42.9 µM | [10] 79.3 µM | [11] 29 µM | [12] 50.1 µM | [13] 3.44 µM | [14] 82.6 µM | [15] 30.4 µM | [16] > 100 µM | [17] > 100 µM

CCc1n[nH]c(=O)n1CCCCCCCCCCCCn1c(CC)n[nH]c1=O
inactive: [1] 26.2 µM | [2] 27.5 µM | [3] 22 µM | [4] 37.1 µM | [5] 24.7 µM | [6] 32 µM | [7] 37.8 µM | [18] 22.5 µM | [8] 19.2 µM | [9] 17.9 µM | [10] 33.6 µM | [11] 11.7 µM | [12] 32.1 µM | [13] 20.2 µM | [14] 29.2 µM | [15] 28.6 µM | [16] 56.6 µM | [17] 52.8 µM

CCc1cccc(CC)c1Nc1nc(-c2ccccc2-c2ccccc2)cs1
inactive: [1] 84.7 µM | [2] 53.2 µM | [3] 70.6 µM | [4] 46.6 µM | [6] > 100 µM | [7] 57.1 µM | [18] 75.2 µM | [19] 55.7 µM | [8] 52.1 µM | [9] 51.5 µM | [10] 94.8 µM | [11] > 100 µM | [12] 50.8 µM | [13] 93.8 µM | [14] > 100 µM | [16] > 100 µM | [17] > 100 µM

CCCSc1ccc2[nH]c(/N=C/c3ccccc3)cc2c1
inactive: [1] 15.6 µM | [2] 34.1 µM | [3] 27.9 µM | [4] 25.5 µM | [5] 23.3 µM | [6] 26.9 µM | [7] 22.1 µM | [18] 13.7 µM | [8] 3.51 µM | [9] 8.34 µM | [11] 19.7 µM | [12] 7.67 µM | [13] 41.7 µM | [14] 28.8 µM | [15] 21.9 µM | [17] 16.6 µM

CC1OC(OC2C(O)COC(OC3C(C)OC(OC4C(OC(=O)[C@]56CCC(C)(C)C[C@@H]5C5=CCC7[C@@]8(C)C[C@H](O)[C@H](OC9OC(CO)C(O)C(OC%10OC(CO)C(O)C(O)C%10O)C9O)[C@@](C)(CO)[C@@H]8CC[C@@]7(C)[C@]5(C)CC6)OCC(O)C4O)C(O)C3OC3OCC(O)(CO)C3O)C2O)C(O)C(O)C1O (some centres undefined)
inactive: [1] 7.96 µM | [2] 6 µM | [3] 11.3 µM | [4] 10.2 µM | [5] 9.84 µM | [6] 5.83 µM | [7] 9.64 µM | [18] 9.77 µM | [8] 6.28 µM | [9] 22.7 µM | [10] 9.48 µM | [11] 9.1 µM | [12] 10.2 µM | [13] 5.87 µM | [14] 9.62 µM | [15] 7.35 µM | [16] 9.95 µM
